The values that follow come from ChEMBL document CHEMBL5346896, “Development of indolealkylamine derivatives as potential multi-target agents for COVID-19 treatment” (Eur J Med Chem, 2023).

The test system of this experiment is SARS-CoV-2. The experiment in a line: Antiviral activity against SARS-CoV-2 spike pseudotyped lentivirus infected in HEK293 cells expressing human ACE2 assessed as inhibition of viral entry into cells at highest concentration preincubated with cell for 1 hrs followed by viral infection for 1 hrs and further replaced with fresh medium and measured 48 hrs post transduction by luminescence based luciferase reporter assay relative to …. The class given is functional, Severe acute respiratory syndrome coronavirus 2, HEK293T. The conditions noted are these: time 2 hrs. (In general: In a reporter assay the amount or activity of a reporter protein is the signal.)

Take `COc1ccc2[nH]c(C(O)c3ccc(Cl)cc3)c(CCNC(C)=O)c2c1` (configuration not stated): the “inhibition (INH)” value turned out to be 70%.

Take `COC(=O)NCCc1c(C(O)c2ccccc2)[nH]c2ccc(OC)cc12` (configuration not stated): the “inhibition (INH)” value is reported as 70%.
